Columns and labels:
Details in all cases: 72 h
Calu-3 [1] = assay: cell viability relative to DMSO; higher = less toxic
U2OS [2] = assay: as above
Caco-2 [3] = assay: as above
HepG2 [4] = assay: as above
Vero E6 [5] = assay: as above
Calu-3 [6] = assay: relative viability EC50 (midpoint between 100% and the lowest measured viability); higher = less toxic
U2OS [7] = assay: as above
Caco-2 [8] = assay: as above
HepG2 [9] = assay: as above
Vero E6 [10] = assay: as above
Calu-3 [11] = assay: drug sensitivity score (DSS) for viability; higher = more toxic; extreme values may be limits of the assay
U2OS [12] = assay: as above
Caco-2 [13] = assay: as above
HepG2 [14] = assay: as above
Vero E6 [15] = assay: as above

| Structure (SMILES) | cell viability (Calu-3 [1]; 1 nM) | cell viability (Calu-3 [1]; 10 nM) | cell viability (Calu-3 [1]; 100 nM) | cell viability (Calu-3 [1]; 1000 nM) | cell viability (Calu-3 [1]; 10000 nM) | cell viability (U2OS [2]; 1 nM) | cell viability (U2OS [2]; 10 nM) | cell viability (U2OS [2]; 100 nM) | cell viability (U2OS [2]; 1000 nM) | cell viability (U2OS [2]; 10000 nM) | cell viability (Caco-2 [3]; 1 nM) | cell viability (Caco-2 [3]; 10 nM) | cell viability (Caco-2 [3]; 100 nM) | cell viability (Caco-2 [3]; 1000 nM) | cell viability (Caco-2 [3]; 10000 nM) | cell viability (HepG2 [4]; 1 nM) | cell viability (HepG2 [4]; 10 nM) | cell viability (HepG2 [4]; 100 nM) | cell viability (HepG2 [4]; 1000 nM) | cell viability (HepG2 [4]; 10000 nM) | cell viability (Vero E6 [5]; 1 nM) | cell viability (Vero E6 [5]; 10 nM) | cell viability (Vero E6 [5]; 100 nM) | cell viability (Vero E6 [5]; 1000 nM) | cell viability (Vero E6 [5]; 10000 nM) | relative viability EC50 (Calu-3 [6]) | relative viability EC50 (U2OS [7]) | relative viability EC50 (Caco-2 [8]) | relative viability EC50 (HepG2 [9]) | relative viability EC50 (Vero E6 [10]) | drug sensitivity score (Calu-3 [11]) | drug sensitivity score (U2OS [12]) | drug sensitivity score (Caco-2 [13]) | drug sensitivity score (HepG2 [14]) | drug sensitivity score (Vero E6 [15]) |
| --- | --- | --- | --- | --- | --- | --- | --- | --- | --- | --- | --- | --- | --- | --- | --- | --- | --- | --- | --- | --- | --- | --- | --- | --- | --- | --- | --- | --- | --- | --- | --- | --- | --- | --- | --- |
| CCC(=O)O[C@@H](O[P@@](=O)(CCCCc1ccccc1)CC(=O)N1C[C@H](C2CCCCC2)C[C@H]1C(=O)O)C(C)C [fosinopril] | 98.3% | 89.7% | 103% | 85.7% | 100% | 103% | 97.2% | 105% | 97.7% | 104% | 100% | 95.3% | 99.3% | 92.7% | 103% | 103% | 92.7% | 93.7% | 103% | 97.9% | 99.8% | 97.8% | 92.7% | 95.4% | 99.6% | > 10 µM | > 10 µM | > 10 µM | > 10 µM | > 10 µM | 0 | 0 | 0 | 0 | 0 |
| COc1ccc2c3c1O[C@H]1C[C@@H](O)C=C[C@@]31CCN(C)C2 [galantamine] | 96.9% | 91.2% | 103% | 104% | 99.9% | 101% | 95.4% | 96.5% | 104% | 104% | 90.2% | 104% | 106% | 112% | 108% | 84.5% | 105% | 85.8% | 102% | 100% | 102% | 99.1% | 103% | 90.8% | 93.6% | > 10 µM | > 10 µM | > 10 µM | > 10 µM | > 10 µM | 0 | 0 | 0 | 0 | 0 |
| CN1C2CCCC1CC(NC(=O)c1nn(C)c3ccccc13)C2 (stereo not given) [granisetron] | 108% | 106% | 110% | 92.4% | 105% | 105% | 95.8% | 99.9% | 97.8% | 98.1% | 96.7% | 99.1% | 102% | 105% | 107% | 109% | 98.1% | 82.7% | 95.1% | 92.7% | 111% | 102% | 99.9% | 102% | 96.2% | > 10 µM | > 10 µM | > 10 µM | > 10 µM | > 10 µM | 0 | 0 | 0 | 0 | 0 |
| C=C[C@@H]1C[C@]1(NC(=O)[C@@H]1C[C@@H]2CN1C(=O)[C@H](C(C)(C)C)NC(=O)O[C@@H]1C[C@H]1CCCCCc1nc3ccc(OC)cc3nc1O2)C(=O)NS(=O)(=O)C1CC1 [grazoprevir] | 103% | 107% | 105% | 94.7% | 103% | 93% | 100% | 96% | 91.6% | 90.4% | 101% | 98.5% | 105% | 93.9% | 80.8% | 106% | 92.5% | 99.6% | 103% | 106% | 96.3% | 98.3% | 97.1% | 95.3% | 103% | > 10 µM | > 10 µM | > 10 µM | > 10 µM | > 10 µM | 0 | 0 | 1.2 | 0 | 0 |
| CCC(=O)O[C@]1(C(=O)CCl)[C@@H](C)C[C@H]2[C@@H]3C[C@H](F)C4=CC(=O)C=C[C@]4(C)[C@@]3(F)[C@@H](O)C[C@@]21C [halobetasol-propionate] | 81.1% | 82.1% | 77.5% | 93.1% | 80% | 96.7% | 102% | 95.8% | 101% | 93.6% | 105% | 105% | 104% | 108% | 99.4% | 106% | 93.9% | 102% | 98.1% | 111% | 99.9% | 101% | 104% | 102% | 106% | > 10 µM | > 10 µM | > 10 µM | > 10 µM | > 10 µM | 0 | 0 | 0 | 0 | 0 |
| CCN(CC)CCNc1ccc(CO)c2sc3ccccc3c(=O)c12 [hycanthone] | 101% | 110% | 101% | 102% | 84.8% | 100% | 101% | 96.2% | 104% | 85.2% | 90% | 106% | 111% | 104% | 44.2% | 101% | 96.5% | 84.2% | 70% | 0.7% | 104% | 101% | 103% | 88.5% | 32.8% | > 10 µM | > 10 µM | 3.5 µM | 1.55 µM | 1.87 µM | 0.2 | 0.1 | 2.7 | 9.1 | 5.6 |
| CCCC(=O)O[C@]1(C(=O)CO)CC[C@H]2[C@@H]3CCC4=CC(=O)CC[C@]4(C)[C@H]3[C@@H](O)C[C@@]21C [hydrocortisone-butyrate] | 109% | 101% | 102% | 95.8% | 89.1% | 97% | 95.8% | 97.1% | 95.3% | 95.6% | 103% | 95.2% | 98.4% | 104% | 102% | 95.1% | 102% | 93.8% | 102% | 101% | 95.5% | 99% | 91.5% | 102% | 105% | > 10 µM | > 10 µM | > 10 µM | > 10 µM | > 10 µM | 0.1 | 0 | 0 | 0 | 0 |
| CC(N)Cc1ccc(O)cc1 (stereo not given) [hydroxyamphetamine] | 92.5% | 94.4% | 98.7% | 100% | 107% | 98.6% | 101% | 96.2% | 102% | 94.5% | 107% | 92.8% | 94.2% | 98.7% | 99.5% | 102% | 103% | 93.4% | 93.7% | 96% | 99.9% | 102% | 99.4% | 95.1% | 104% | > 10 µM | > 10 µM | > 10 µM | > 10 µM | > 10 µM | 0 | 0 | 0 | 0 | 0 |
| O=c1c(O[C@@H]2O[C@H](CO)[C@H](O)[C@H](O)[C@H]2O)c(-c2ccc(O)c(O)c2)oc2cc(O)cc(O)c12 [hyperin] | 96.9% | 86.3% | 102% | 104% | 98.9% | 99.5% | 97.3% | 101% | 98.4% | 100% | 104% | 93.3% | 99% | 107% | 105% | 84.8% | 95.7% | 87.3% | 103% | 97.9% | 98% | 97.2% | 94% | 97.7% | 108% | > 10 µM | > 10 µM | > 10 µM | > 10 µM | > 10 µM | 0 | 0 | 0 | 0 | 0 |
| CNC(=O)[C@H](Cc1c[nH]c2ccccc12)NC(=O)[C@@H](CC(=O)NO)CC(C)C [ilomastat] | 102% | 98.6% | 107% | 97.3% | 90.4% | 97.6% | 98.2% | 85.8% | 102% | 84.7% | 94.1% | 104% | 102% | 96.6% | 102% | 107% | 90.5% | 104% | 90.5% | 103% | 97.4% | 97% | 95% | 93.2% | 88.7% | > 10 µM | > 10 µM | > 10 µM | > 10 µM | > 10 µM | 0 | 0 | 0 | 0 | 0 |
| CS(=O)(=O)Oc1ccc2c(NC(N)=O)c(C(=O)c3ccc(Cl)cc3Cl)oc2c1 [lirimilast] | 98.8% | 106% | 91.4% | 101% | 104% | 95.5% | 99% | 97.9% | 107% | 102% | 98.5% | 96.3% | 102% | 108% | 110% | 94.3% | 89.7% | 106% | 94.7% | 95.9% | 98.6% | 94.7% | 97% | 84.4% | 99.6% | > 10 µM | > 10 µM | > 10 µM | > 10 µM | > 10 µM | 0 | 0 | 0 | 0 | 0 |
| O=C(O)c1ccccc1Nc1cc(Cl)ccc1C(=O)O [lobenzarit] | 111% | 88.1% | 108% | 95.2% | 90.3% | 91.3% | 96% | 101% | 96.9% | 104% | 95.9% | 101% | 99.1% | 93.1% | 98.2% | 106% | 109% | 95.6% | 103% | 105% | 97.7% | 97.3% | 86% | 87.4% | 114% | > 10 µM | > 10 µM | > 10 µM | > 10 µM | > 10 µM | 0.2 | 0 | 0 | 0 | 0 |
| NCCCC[C@H](NC(=O)[C@@H]1CCCN1C(=O)[C@@H]1CSSC[C@H](N)C(=O)N[C@@H](Cc2ccc(O)cc2)C(=O)N[C@@H](Cc2ccccc2)C(=O)N[C@@H](CCC(N)=O)C(=O)N[C@@H](CC(N)=O)C(=O)N1)C(=O)NCC(N)=O [lypressin] | 95.6% | 98.1% | 103% | 93.4% | 92.2% | 99.7% | 105% | 97.5% | 98.8% | 101% | 98.6% | 99.6% | 97.8% | 102% | 101% | 105% | 97.9% | 97.8% | 100% | 100% | 97.4% | 101% | 95.4% | 99.1% | 100% | > 10 µM | > 10 µM | > 10 µM | > 10 µM | > 10 µM | 0 | 0 | 0 | 0 | 0 |

From the supplement of paper PMC13380429
